Counter-ions that a name gives are not always drawn.
Tests used:
HTT mRNA = test: Splicing RT-qPCR assay, HTT canonical (CJ) and alternative (AJ) junction mRNA; type: cell-based; settings: Homo sapiens, A673 or K562 cells, 24 hours; for IC50: decrease in canonical junction mRNA; for AC50: increase in alternative junction mRNA
Method in brief: (§1)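 A673 (DMEM/10% FBS, plated 24 h before dosing) or K562 (IMDM/10% FBS) cells treated 24 h at 37 °C with 11-point 3-fold dilutions, top final 10 uM, DMSO ≤0.25%. Lysates analysed by one-step RT-qPCR for CJ and AJ isoforms, normalized to GAPDH/GUSB (K562) or PPIA (A673).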

MYB mRNA = test: Splicing RT-qPCR assay, MYB canonical (CJ) and alternative (AJ) junction mRNA; type: cell-based; settings: Homo sapiens, A673 or K562 cells, 24 hours; for IC50: decrease in canonical junction mRNA; for AC50: increase in alternative junction mRNA
Method in brief: as §1

Target C = test: HiBiT protein abundance assay, Target C (K562 HiBiT knock-in cells); type: cell-based, human; settings: 24 hours
Method in brief: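 K562 knock-in cells (10000/well, IMDM+1% FBS) treated 24 h at 37 °C with 10-point 3-fold dilutions, top final 10 μM, DMSO ≤0.25%. HiBiT lytic luminescence read; response normalized to unmodified K562 and DMSO-treated controls. IC50 interpolated at 50% abundance by four-parameter logistic fit.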

Row | SMILES | IC50 (HTT mRNA) [µM] | AC50 (HTT mRNA) [µM] | IC50 (MYB mRNA) [µM] | AC50 (MYB mRNA) [µM] | IC50 (Target C) [µM]
1 | Cc1cn2cc(NC(=O)c3ccc(N4CCNCC4)c4ccnnc34)cc(C#N)c2n1 [Compound 167, N-{8-cyano-2-methylimidazo[1,2-a]pyridin-6-yl}-5-(piperazin-1-yl)cinnoline-8-carboxamide trifluoroacetic acid salt] | 1 to 10 | > 10 | 0.1 to 1 | 0.1 to 1 | 1 to 10
2 | CCc1cc(NC(=O)c2ccc(N3CCNCC3)c3ccnnc23)nn2cc(C)nc12 [Compound 168, N-{8-ethyl-2-methylimidazo[1,2-b]pyridazin-6-yl}-5-(piperazin-1-yl)cinnoline-8-carboxamide trifluoroacetic acid salt] | > 10 | > 10 | 1 to 10 | 1 to 10 | > 10
3 | COc1ccc2c(N3CCNCC3)ccc(C(=O)Nc3cc(F)c4nc(C)cn4c3)c2n1 [Compound 169, N-{8-fluoro-2-methylimidazo[1,2-a]pyridin-6-yl}-2-methoxy-5-(piperazin-1-yl)quinoline-8-carboxamide] | 1 to 10 | 1 to 10 | < 0.1 | < 0.1 | 1 to 10
4 | Cc1cn2cc(NC(=O)c3ccc(N4C[C@@H](C)N[C@@H](C)C4)c4ccnnc34)nc(C)c2n1 [Compound 172, N-{2,8-dimethylimidazo[1,2-a]pyrazin-6-yl}-5-[(3R,5S)-3,5-dimethylpiperazin-1-yl]cinnoline-8-carboxamide] | > 10 | > 10 | 0.1 to 1 | < 0.1 | > 10
5 | COCCOc1ccc2c(N3CCNCC3)ccc(C(=O)Nc3cc(F)c4nc(C)cn4c3)c2n1 [Compound 173, N-{8-fluoro-2-methylimidazo[1,2-a]pyridin-6-yl}-2-(2-methoxyethoxy)-5-(piperazin-1-yl)quinoline-8-carboxamide] | > 10 | > 10 | < 0.1 | < 0.1 | > 10
6 | COc1cc(NC(=O)c2ccc(N3CCNCC3)c3ccnnc23)cn2cc(C)nc12 [Compound 176, N-{8-methoxy-2-methylimidazo[1,2-a]pyridin-6-yl}-5-(piperazin-1-yl)cinnoline-8-carboxamide trifluoroacetate] | > 10 | > 10 | 0.1 to 1 | 0.1 to 1 | 1 to 10
7 | Cc1cn2cc(NC(=O)c3ccc(N4CCNCC4)c4ccnnc34)[nH]c(=O)c2n1 [Compound 177, N-{2-methyl-8-oxo-7H-imidazo[1,2-a]pyrazin-6-yl}-5-(piperazin-1-yl)cinnoline-8-carboxamide trifluoroacetic acid salt] | 0.1 to 1 | 0.1 to 1 | 0.1 to 1 | 0.1 to 1 | 0.1 to 1
8 | Cc1nc(NC(=O)c2ccc(N3CCNCC3)c3ccnnc23)cc2cn(C)nc12 [Compound 178, N-{2,7-dimethylpyrazolo[3,4-c]pyridin-5-yl}-5-(piperazin-1-yl)cinnoline-8-carboxamide] | > 10 | > 10 | 0.1 to 1 | 0.1 to 1 | > 10
9 | COc1nc(NC(=O)c2ccc(N3CCNCC3)c3ccnnc23)cn2cc(C)nc12 [Compound 179, N-{8-methoxy-2-methylimidazo[1,2-a]pyrazin-6-yl}-5-(piperazin-1-yl)cinnoline-8-carboxamide] | 1 to 10 | 1 to 10 | < 0.1 | < 0.1 | > 10
10 | Cc1c(O)c(NC(=O)c2ccc(N3CCNCC3)c3ccnnc23)cc2cn(C)nc12 [Compound 181, N-(6-hydroxy-2,7-dimethylindazol-5-yl)-5-(piperazin-1-yl)cinnoline-8-carboxamide] | > 10 | > 10 | 0.1 to 1 | 1 to 10 | > 10
11 | Cc1cn2cc(NC(=O)c3ccc(N4CCNCC4)c4ccnnc34)cc(C(C)O)c2n1 (centres unmarked) [Compound 182, N-[8-(1-hydroxyethyl)-2-methylimidazo[1,2-a]pyridin-6-yl]-5-(piperazin-1-yl)cinnoline-8-carboxamide trifluoroacetate] | > 10 | > 10 | > 10 | > 10 | > 10
12 | COc1cc2c(N3CCNCC3)ccc(C(=O)Nc3cc(F)c4nc(C)cn4c3)c2nn1 [Compound 183, N-{8-fluoro-2-methylimidazo[1,2-a]pyridin-6-yl}-3-methoxy-5-(piperazin-1-yl)cinnoline-8-carboxamide] | 1 to 10 | 1 to 10 | < 0.1 | < 0.1 | 1 to 10
13 | Cc1cn2cc(NC(=O)c3ccc(N4C[C@@H](C)N[C@@H](C)C4)c4nccnc34)cc(F)c2n1 [Compound 186, 8-(3,5-dimethylpiperazin-1-yl)-N-{8-fluoro-2-methylimidazo[1,2-a]pyridin-6-yl}quinoxaline-5-carboxamide] | 1 to 10 | 1 to 10 | < 0.1 | < 0.1 | 1 to 10
14 | Cc1cn2cc(NC(=O)c3ccc(N4CCN[C@@H](C)C4)c4nccnc34)cc(F)c2n1 [Compound 187, N-{8-fluoro-2-methylimidazo[1,2-a]pyridin-6-yl}-8-(3-methylpiperazin-1-yl) quinoxaline-5-carboxamide] | 1 to 10 | 1 to 10 | < 0.1 | < 0.1 | 1 to 10
15 | Cc1cn2cc(NC(=O)c3ccc(N4CCC5(CCN5)CC4)c4nccnc34)cc(F)c2n1 [Compound 189, 8-{1,7-diazaspiro[3.5]nonan-7-yl}-N-{8-fluoro-2-methylimidazo[1,2-a]pyridin-6-yl}quinoxaline-5-carboxamide] | 0.1 to 1 | 0.1 to 1 | < 0.1 | 0.1 to 1 | 1 to 10
16 | CNC1CCN(c2ccc(C(=O)Nc3cc(F)c4nc(C)cn4c3)c3nccnc23)C1 (centres unmarked) [Compound 190, N-{8-fluoro-2-methylimidazo[1,2-a]pyridin-6-yl}-8-[3-(methylamino)pyrrolidin-1-yl]quinoxaline-5-carboxamide] | 1 to 10 | 1 to 10 | 0.1 to 1 | < 0.1 | 1 to 10
17 | CCNC1CCN(c2ccc(C(=O)Nc3cc(F)c4nc(C)cn4c3)c3nccnc23)CC1 [Compound 191, 8-[4-(ethylamino)piperidin-1-yl]-N-{8-fluoro-2-methylimidazo[1,2-a]pyridin-6-yl}quinoxaline-5-carboxamide] | 0.1 to 1 | 0.1 to 1 | < 0.1 | 0.1 to 1 | 1 to 10
18 | CNCC1CCN(c2ccc(C(=O)Nc3cc(F)c4nc(C)cn4c3)c3nccnc23)CC1 [Compound 192, N-{8-fluoro-2-methylimidazo[1,2-a]pyridin-6-yl}-8-{4-[(methylamino)methyl]piperidin-1-yl}quinoxaline-5-carboxamide trifluoroacetate] | 1 to 10 | 1 to 10 | 1 to 10 | 1 to 10 | 1 to 10
19 | CNC1CCN(c2ccc(C(=O)Nc3cc(F)c4nc(C)cn4c3)c3nc(C)ccc23)C1 (centres unmarked) [Compound 196, N-{8-fluoro-2-methylimidazo[1,2-a]pyridin-6-yl}-2-methyl-5-[3-(methylamino)pyrrolidin-1-yl]quinoline-8-carboxamide 2,2,2-trifluoroacetate] | 1 to 10 | 1 to 10 | 0.1 to 1 | 0.1 to 1 | 1 to 10
20 | Cc1cnc2c(N3CCNCC3)ccc(C(=O)Nc3cc(F)c4nc(C)cn4c3)c2n1 [Compound 197, N-{8-fluoro-2-methylimidazo[1,2-a]pyridin-6-yl}-3-methyl-8-(piperazin-1-yl)quinoxaline-5-carboxamide; trifluoroacetic acid] | 1 to 10 | 1 to 10 | 0.1 to 1 | 0.1 to 1 | 1 to 10
21 | COCCOc1cc2c(N3CCNCC3)ccc(C(=O)Nc3cc(F)c4nc(C)cn4c3)c2nn1 [Compound 199, N-{8-fluoro-2-methylimidazo[1,2-a]pyridin-6-yl}-3-(2-methoxyethoxy)-5-(piperazin-1-yl)cinnoline-8-carboxamide] | > 10 | > 10 | 0.1 to 1 | < 0.1 | 1 to 10
22 | Cc1cnc2c(N3CCC(N(C)C)CC3)ccc(C(=O)Nc3cc(F)c4nc(C)cn4c3)c2n1 [Compound 200, 8-[4-(dimethylamino)piperidin-1-yl]-N-{8-fluoro-2-methylimidazo[1,2-a]pyridin-6-yl}-3-methylquinoxaline-5-carboxamide] | 0.1 to 1 | 0.1 to 1 | < 0.1 | < 0.1 | 0.1 to 1
23 | CNC1CCN(c2ccc(C(=O)Nc3cc(F)c4nc(C)cn4c3)c3nc(OC)cnc23)C1 (centres unmarked) [Compound 202, N-{8-fluoro-2-methylimidazo[1,2-a]pyridin-6-yl}-3-methoxy-8-[3-(methylamino)pyrrolidin-1-yl]quinoxaline-5-carboxamide; bis(trifluoroacetic acid)] | > 10 | > 10 | – | 0.1 to 1 | 1 to 10
24 | CN[C@@H]1CCN(c2ccc(C(=O)Nc3cc(F)c4nc(C)cn4c3)c3nc(OC)cnc23)C1 [Compound 204, (R)—N-{8-fluoro-2-methylimidazo[1,2-a]pyridin-6-yl}-3-methoxy-8-[3-(methylamino)pyrrolidin-1-yl]quinoxaline-5-carboxamide; trifluoroacetic acid] | > 10 | > 10 | 1 to 10 | > 10 | 1 to 10

Source: US20240409536A1, “COMPOUNDS AND METHODS FOR MODULATING SPLICING” (REMIX THERAPEUTICS INC., priority 2021, published 2024)
